SMILES strings stand for the structures. Calls of active or inactive are those of the source.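 The calls were made as follows: active = protein phosphatase 1 activity cut by at least 70% at 50 µM; inactive = inhibition below 70%.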

This assay deals with Serine/threonine-protein phosphatase PP1-alpha catalytic subunit (Homo sapiens) (UniProt P62136). The assay is described as follows: PP1 inhibition of phosphohistone dephosphorylation, late-stage follow-up, biochemical, radiolabel, single concentration, powder samples (AID 652228). As to conditions: purified PP1alpha, 33P-phosphohistone dephosphorylation, scintillation; at 50 µM; stronger effect = higher value.
Sequence of Serine/threonine-protein phosphatase PP1-alpha catalytic subunit (Homo sapiens) (P62136 whole entry, looked up): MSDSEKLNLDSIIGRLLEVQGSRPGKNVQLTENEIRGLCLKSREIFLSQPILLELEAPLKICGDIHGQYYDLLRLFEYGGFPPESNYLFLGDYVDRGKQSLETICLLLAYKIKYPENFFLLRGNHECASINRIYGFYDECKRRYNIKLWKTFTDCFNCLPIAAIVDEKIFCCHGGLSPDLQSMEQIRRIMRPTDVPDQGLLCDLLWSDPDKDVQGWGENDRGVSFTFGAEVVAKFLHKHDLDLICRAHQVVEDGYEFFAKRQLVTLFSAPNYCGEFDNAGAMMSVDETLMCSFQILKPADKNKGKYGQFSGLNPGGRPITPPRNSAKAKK
As a reminder, the inhibition is the change of the read-out against control, counted positive when it falls. For `CN1CCN(C(c2ccccn2)c2cc(Cl)ccc2O)CC1` (stereo not given), the inhibition is 2.44% (inactive).
As to `Oc1c(CN2CCN(c3ccccn3)CC2)cc(Cl)c2cccnc12`, the inhibition was 12.6% (inactive).
Turning to `Oc1c(C(c2ccccn2)N2CCC(Cc3ccccc3)CC2)cc(Cl)c2cccnc12` (stereo not given), the inhibition came to 57.4%.
The same measure for `Oc1c(CN2CCN(c3ccccc3)CC2)cc(Cl)c2cccnc12`: 18.5% (inactive).
In the case of `CN1CCN(C(c2cccnc2)c2cc(Cl)c3cccnc3c2O)CC1` (stereo not given), the inhibition was 10% (inactive).
For `Oc1c(C(c2ccccn2)N2CCN(c3ccccc3F)CC2)cc(Cl)c2cccnc12` (stereo not given) the value was 35.7%; for `Oc1c(C(c2ccccn2)N2CCNCC2)cc(Cl)c2cccnc12` (stereo not given), 59%; for `CCOC(c1ccccn1)c1cc(Cl)c2cccnc2c1O` (stereo not given), 15.6% (inactive).
The same measure for `CN1CCN(C(c2ccccc2)c2cc(Cl)c3cccnc3c2O)CC1` (stereo not given): 4.84% (inactive).
For `CCN1CCN(C(c2ccccn2)c2cc(Cl)c3cccnc3c2O)CC1` (stereo not given) the value was -51.6% (inactive); for `CN1CCN(C(c2ccncc2)c2cc(Cl)c3cccnc3c2O)CC1` (stereo not given), 4.17% (inactive); for `CC(C)(C)OC(=O)N1CCN(C(c2ccccn2)c2cc(Cl)c3cccnc3c2O)CC1` (stereo not given), 49.1%.
With `CN1CCN(C(c2ccccn2)c2cc(Cl)c3ccccc3c2O)CC1` (stereo not given), the inhibition was 5.68% (inactive).
Regarding `CN1CCN(C(c2ccccn2)c2cc(Cl)c3cccnc3c2O)CC1` (stereo not given), the inhibition was -38.1% (inactive).
`CC1CCN(C(c2ccccn2)c2cc(Cl)c3cccnc3c2O)CC1` (stereo not given): the inhibition turned out to be 43.2%.

(Values after PubChem BioAssay AID652228 (The Scripps Research Institute Molecular Screening Center, 2013).)
